The source made the active and inactive calls. No cut-off for these calls is given here.
How the values were obtained:
PDE11A = PDE11A (Homo sapiens, UniProt Q9HCR9); experiment: Inhibition of recombinant human PDE11A extracted from Sf9 cells using [3H]cAMP as substrate at 10 uM by Eurofins kinase assay relative to control; type: toxicity, cell-free; settings: probe [3H]cAMP
Cytochrome P450 3A4 = Cytochrome P450 3A4 (Homo sapiens, UniProt P08684); experiment: Inhibition of recombinant human CYP3A4 by Eurofins assay; type: ADME
[1] = molecular target: cGMP-inhibited 3',5'-cyclic phosphodiesterase 3B (Homo sapiens) (UniProt Q13370); experiment: Inhibition of human PDE3B at 10 uM by Eurofins kinase assay relative to control
[2] = molecular target: cGMP-dependent 3',5'-cyclic phosphodiesterase (Homo sapiens) (UniProt O00408); experiment: Inhibition of human PDE2A1 at 10 uM by Eurofins kinase assay relative to control
[3] = molecular target: cGMP-inhibited 3',5'-cyclic phosphodiesterase 3A (Homo sapiens) (UniProt Q14432); experiment: Inhibition of human PDE3A at 10 uM by Eurofins kinase assay relative to control
Homo sapiens [4] = species: Homo sapiens; experiment: Inhibition of human PDE4A1A at 10 uM by Eurofins kinase assay relative to control
[5] = Aqueous solubility of compound at pH 7.4; type: physicochemical
Cytochrome P450 2D6 = Cytochrome P450 2D6 (Homo sapiens, UniProt P10635); experiment: Inhibition of recombinant human CYP2D6 by Eurofins assay; type: ADME
[6] = molecular target: Dual 3',5'-cyclic-AMP and -GMP phosphodiesterase 11A (Homo sapiens) (UniProt Q9HCR9); experiment: Inhibition of human PDE11A at 10 uM by Eurofins kinase assay relative to control
Cryptosporidium parvum = experiment: Antiparasitic activity against Cryptosporidium parvum Iowa oocyst infected in NOD SCID gamma mouse model assessed as reduction in parasite fecal shedding at 50 mg/kg, po administered twice daily for 7 days starting from day 7 post infection and measured on day 21 by qPCR analysis; type: functional, organism-based; settings: time 14.0 day
[7] = molecular target: High affinity cAMP-specific and IBMX-insensitive 3',5'-cyclic phosphodiesterase 8A (Homo sapiens) (UniProt O60658); experiment: Inhibition of human PDE8A1 at 10 uM by Eurofins kinase assay relative to control
[8] = molecular target: High affinity 3',5'-cyclic-AMP phosphodiesterase 7A (Homo sapiens) (UniProt Q13946); experiment: Inhibition of human PDE7A1 at 10 uM by Eurofins kinase assay relative to control
PDE6 = experiment: Inhibition of bovine retina PDE6 using [3H]cGMP as substrate at 10 uM by Eurofins kinase assay relative to control; type: toxicity, Bos taurus; settings: cattle, bovine retina PDE6, probe [3H]cGMP
Homo sapiens [9] = species: Homo sapiens; experiment: Inhibition of human PDE6 at 10 uM by Eurofins kinase assay relative to control
Cytochrome P450 2C8 = Cytochrome P450 2C8 (Homo sapiens, UniProt P10632); experiment: Inhibition of recombinant human CYP2C8 by Eurofins assay; type: ADME
[10] = molecular target: 3',5'-cyclic-AMP phosphodiesterase 4B (Homo sapiens) (UniProt Q07343); experiment: Inhibition of human PDE4B1 at 10 uM by Eurofins kinase assay relative to control
[11] = Cytotoxicity against human HCT-8 cells assessed as inhibition of cell proliferation incubated for 48 hrs by Celltiter aqueous assay; type: toxicity, cell-based; settings: read-out: TC50
Cytochrome P450 2C19 = Cytochrome P450 2C19 (Homo sapiens, UniProt P33261); experiment: Inhibition of recombinant human CYP2C19 by Eurofins assay; type: ADME
[12] = molecular target: T1, 3',5'-cyclic-AMP phosphodiesterase 4D (Homo sapiens, UniProt Q08499); experiment: Inhibition of human PDE4D2 by Eurofins kinase assay; type: toxicity
HCT-8 = experiment: Cytotoxicity against human HCT-8 cells assessed as reduction in cell numbers upto 50 uM incubated for 48 hrs by high-density microscopic celltiter aqueous assay; type: toxicity, cell-based; settings: hct-8, 48 h
Cytochrome P450 2B6 = Cytochrome P450 2B6 (Homo sapiens, UniProt P20813); experiment: Inhibition of recombinant human CYP2B6 by Eurofins assay; type: ADME
PDE5 = PDE5 (Homo sapiens, UniProt O76074); experiment: Inhibition of human platelet PDE5 using [3H]cGMP as substrate at 10 uM by Eurofins kinase assay relative to control; type: toxicity; settings: human platelet PDE5, probe [3H]cGMP
[13] = molecular target: Voltage-gated inwardly rectifying potassium channel KCNH2 (Homo sapiens, UniProt Q12809); experiment: Inhibition of human ERG by Eurofins kinase assay; type: toxicity
Cytochrome P450 1A2 = Cytochrome P450 1A2 (Homo sapiens, UniProt P05177); experiment: Inhibition of recombinant human CYP1A2 by Eurofins assay; type: ADME
PDE4B1 = PDE4B1 (Homo sapiens, UniProt Q07343); experiment: Inhibition of recombinant human PDE4B1 extracted from Sf9 cells using [3H]cAMP as substrate at 10 uM by Eurofins kinase assay relative to control; type: toxicity, cell-free; settings: probe [3H]cAMP
Homo sapiens [14] = species: Homo sapiens; experiment: Inhibition of human PDE1B at 10 uM by Eurofins kinase assay relative to control
[15] = molecular target: T1, 3',5'-cyclic-AMP phosphodiesterase 4D; experiment: Inhibition of human PDE4D2 at 10 uM by Eurofins kinase assay relative to control
[16] = molecular target: cGMP-specific 3',5'-cyclic phosphodiesterase (Homo sapiens) (UniProt O76074); experiment: Inhibition of human PDE5 at 10 uM by Eurofins kinase assay relative to control
[17] = molecular target: cAMP and cAMP-inhibited cGMP 3',5'-cyclic phosphodiesterase 10A (Homo sapiens) (UniProt Q9Y233); experiment: Inhibition of human PDE10A2 at 10 uM by Eurofins kinase assay relative to control

T1 sequence (Q08499 whole entry): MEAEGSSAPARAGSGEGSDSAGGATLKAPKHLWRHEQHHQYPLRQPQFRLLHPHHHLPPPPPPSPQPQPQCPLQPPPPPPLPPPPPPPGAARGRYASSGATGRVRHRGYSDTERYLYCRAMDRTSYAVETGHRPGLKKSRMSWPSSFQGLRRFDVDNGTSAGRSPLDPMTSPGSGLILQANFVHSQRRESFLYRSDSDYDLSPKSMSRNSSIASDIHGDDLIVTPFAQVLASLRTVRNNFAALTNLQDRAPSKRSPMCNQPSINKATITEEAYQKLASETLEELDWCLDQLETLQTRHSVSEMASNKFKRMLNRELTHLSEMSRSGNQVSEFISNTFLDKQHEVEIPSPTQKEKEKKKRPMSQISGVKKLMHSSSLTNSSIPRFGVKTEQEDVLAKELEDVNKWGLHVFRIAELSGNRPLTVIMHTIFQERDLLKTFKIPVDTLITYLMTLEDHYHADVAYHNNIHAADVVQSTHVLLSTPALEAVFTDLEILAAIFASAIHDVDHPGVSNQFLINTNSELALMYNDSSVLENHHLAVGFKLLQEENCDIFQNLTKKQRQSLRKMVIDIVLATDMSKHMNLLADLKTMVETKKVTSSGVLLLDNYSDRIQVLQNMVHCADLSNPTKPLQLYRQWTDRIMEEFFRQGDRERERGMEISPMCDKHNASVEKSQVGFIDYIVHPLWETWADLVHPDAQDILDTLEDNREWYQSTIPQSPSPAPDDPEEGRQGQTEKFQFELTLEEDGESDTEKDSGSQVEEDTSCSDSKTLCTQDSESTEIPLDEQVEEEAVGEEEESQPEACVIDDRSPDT
Sequence of Cytochrome P450 2B6 (P20813 whole entry): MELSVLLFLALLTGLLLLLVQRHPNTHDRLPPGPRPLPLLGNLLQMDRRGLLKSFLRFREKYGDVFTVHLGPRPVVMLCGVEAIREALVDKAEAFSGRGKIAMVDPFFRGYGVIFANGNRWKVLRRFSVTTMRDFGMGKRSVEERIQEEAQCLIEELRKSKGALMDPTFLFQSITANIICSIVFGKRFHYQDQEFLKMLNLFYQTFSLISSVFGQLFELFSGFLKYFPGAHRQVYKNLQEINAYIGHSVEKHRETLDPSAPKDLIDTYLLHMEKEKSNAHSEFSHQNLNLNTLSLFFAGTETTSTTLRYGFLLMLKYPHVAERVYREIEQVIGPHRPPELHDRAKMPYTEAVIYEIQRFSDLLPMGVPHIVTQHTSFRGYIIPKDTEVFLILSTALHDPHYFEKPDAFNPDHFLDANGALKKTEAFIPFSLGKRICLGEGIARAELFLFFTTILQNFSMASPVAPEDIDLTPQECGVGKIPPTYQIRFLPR
Sequence of Cytochrome P450 3A4 (P08684 whole entry): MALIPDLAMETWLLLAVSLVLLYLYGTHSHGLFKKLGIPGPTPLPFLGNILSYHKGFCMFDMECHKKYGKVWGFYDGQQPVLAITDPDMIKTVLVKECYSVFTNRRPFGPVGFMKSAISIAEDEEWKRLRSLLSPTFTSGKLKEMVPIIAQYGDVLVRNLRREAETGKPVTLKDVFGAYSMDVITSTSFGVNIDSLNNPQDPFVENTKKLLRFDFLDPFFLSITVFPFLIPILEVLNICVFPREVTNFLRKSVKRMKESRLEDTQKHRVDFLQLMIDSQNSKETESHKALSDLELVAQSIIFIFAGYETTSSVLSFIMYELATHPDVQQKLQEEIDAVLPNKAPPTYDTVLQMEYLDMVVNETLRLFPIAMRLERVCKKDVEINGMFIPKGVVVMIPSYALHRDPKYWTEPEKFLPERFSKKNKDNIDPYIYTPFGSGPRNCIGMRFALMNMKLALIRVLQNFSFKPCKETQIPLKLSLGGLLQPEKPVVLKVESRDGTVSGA
Sequence of Cytochrome P450 2D6 (P10635 whole entry): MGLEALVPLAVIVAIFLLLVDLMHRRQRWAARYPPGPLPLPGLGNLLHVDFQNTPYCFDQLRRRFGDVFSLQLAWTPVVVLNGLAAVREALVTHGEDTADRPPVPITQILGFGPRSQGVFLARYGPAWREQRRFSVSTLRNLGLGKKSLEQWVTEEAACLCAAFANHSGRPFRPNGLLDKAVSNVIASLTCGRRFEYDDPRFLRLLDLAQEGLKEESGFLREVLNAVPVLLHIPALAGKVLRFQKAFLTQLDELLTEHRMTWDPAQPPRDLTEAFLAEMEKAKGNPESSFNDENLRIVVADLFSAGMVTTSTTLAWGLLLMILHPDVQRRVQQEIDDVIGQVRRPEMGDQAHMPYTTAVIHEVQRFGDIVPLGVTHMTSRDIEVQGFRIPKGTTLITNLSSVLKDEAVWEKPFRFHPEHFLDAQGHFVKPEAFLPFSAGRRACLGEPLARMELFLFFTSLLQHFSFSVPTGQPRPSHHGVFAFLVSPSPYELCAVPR
Sequence of Cytochrome P450 2C19 (P33261 whole entry): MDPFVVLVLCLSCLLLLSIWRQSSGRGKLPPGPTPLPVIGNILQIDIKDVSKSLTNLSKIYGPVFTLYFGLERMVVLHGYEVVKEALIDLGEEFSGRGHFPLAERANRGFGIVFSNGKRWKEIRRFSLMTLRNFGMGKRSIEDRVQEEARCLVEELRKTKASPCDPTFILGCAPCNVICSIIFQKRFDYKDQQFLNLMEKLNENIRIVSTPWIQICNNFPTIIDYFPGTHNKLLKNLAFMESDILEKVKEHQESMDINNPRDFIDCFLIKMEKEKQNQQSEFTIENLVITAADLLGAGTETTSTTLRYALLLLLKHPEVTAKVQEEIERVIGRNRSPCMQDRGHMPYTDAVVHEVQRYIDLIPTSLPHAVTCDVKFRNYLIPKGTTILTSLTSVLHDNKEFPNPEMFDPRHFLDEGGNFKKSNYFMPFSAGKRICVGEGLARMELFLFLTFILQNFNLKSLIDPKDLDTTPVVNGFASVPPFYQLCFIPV
Sequence of cGMP-dependent 3',5'-cyclic phosphodiesterase (Homo sapiens) (O00408 whole entry): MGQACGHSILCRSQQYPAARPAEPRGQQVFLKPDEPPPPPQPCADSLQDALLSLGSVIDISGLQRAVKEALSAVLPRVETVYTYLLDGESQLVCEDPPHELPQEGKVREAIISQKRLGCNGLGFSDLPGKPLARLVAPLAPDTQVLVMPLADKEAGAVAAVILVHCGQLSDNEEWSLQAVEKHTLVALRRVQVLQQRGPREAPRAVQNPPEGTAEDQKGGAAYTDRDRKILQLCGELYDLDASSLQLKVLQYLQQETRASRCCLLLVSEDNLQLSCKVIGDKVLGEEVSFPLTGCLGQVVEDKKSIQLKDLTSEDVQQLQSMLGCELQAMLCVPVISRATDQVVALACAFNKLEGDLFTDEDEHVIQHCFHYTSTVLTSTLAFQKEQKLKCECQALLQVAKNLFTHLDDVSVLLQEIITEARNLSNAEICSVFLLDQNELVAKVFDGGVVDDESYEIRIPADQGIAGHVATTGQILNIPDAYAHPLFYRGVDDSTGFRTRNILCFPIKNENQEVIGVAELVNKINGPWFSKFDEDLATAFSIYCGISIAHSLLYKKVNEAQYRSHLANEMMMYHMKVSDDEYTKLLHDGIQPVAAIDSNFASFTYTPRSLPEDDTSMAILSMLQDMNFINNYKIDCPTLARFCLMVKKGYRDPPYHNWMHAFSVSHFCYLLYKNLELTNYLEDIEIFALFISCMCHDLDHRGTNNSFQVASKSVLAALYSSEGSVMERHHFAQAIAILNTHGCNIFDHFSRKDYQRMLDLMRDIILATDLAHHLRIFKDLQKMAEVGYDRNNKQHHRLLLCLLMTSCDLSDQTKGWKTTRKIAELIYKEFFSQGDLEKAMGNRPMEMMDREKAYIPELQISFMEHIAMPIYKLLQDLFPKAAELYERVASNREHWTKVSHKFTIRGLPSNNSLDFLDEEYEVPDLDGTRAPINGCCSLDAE
Sequence of Voltage-gated inwardly rectifying potassium channel KCNH2 (Q12809 whole entry): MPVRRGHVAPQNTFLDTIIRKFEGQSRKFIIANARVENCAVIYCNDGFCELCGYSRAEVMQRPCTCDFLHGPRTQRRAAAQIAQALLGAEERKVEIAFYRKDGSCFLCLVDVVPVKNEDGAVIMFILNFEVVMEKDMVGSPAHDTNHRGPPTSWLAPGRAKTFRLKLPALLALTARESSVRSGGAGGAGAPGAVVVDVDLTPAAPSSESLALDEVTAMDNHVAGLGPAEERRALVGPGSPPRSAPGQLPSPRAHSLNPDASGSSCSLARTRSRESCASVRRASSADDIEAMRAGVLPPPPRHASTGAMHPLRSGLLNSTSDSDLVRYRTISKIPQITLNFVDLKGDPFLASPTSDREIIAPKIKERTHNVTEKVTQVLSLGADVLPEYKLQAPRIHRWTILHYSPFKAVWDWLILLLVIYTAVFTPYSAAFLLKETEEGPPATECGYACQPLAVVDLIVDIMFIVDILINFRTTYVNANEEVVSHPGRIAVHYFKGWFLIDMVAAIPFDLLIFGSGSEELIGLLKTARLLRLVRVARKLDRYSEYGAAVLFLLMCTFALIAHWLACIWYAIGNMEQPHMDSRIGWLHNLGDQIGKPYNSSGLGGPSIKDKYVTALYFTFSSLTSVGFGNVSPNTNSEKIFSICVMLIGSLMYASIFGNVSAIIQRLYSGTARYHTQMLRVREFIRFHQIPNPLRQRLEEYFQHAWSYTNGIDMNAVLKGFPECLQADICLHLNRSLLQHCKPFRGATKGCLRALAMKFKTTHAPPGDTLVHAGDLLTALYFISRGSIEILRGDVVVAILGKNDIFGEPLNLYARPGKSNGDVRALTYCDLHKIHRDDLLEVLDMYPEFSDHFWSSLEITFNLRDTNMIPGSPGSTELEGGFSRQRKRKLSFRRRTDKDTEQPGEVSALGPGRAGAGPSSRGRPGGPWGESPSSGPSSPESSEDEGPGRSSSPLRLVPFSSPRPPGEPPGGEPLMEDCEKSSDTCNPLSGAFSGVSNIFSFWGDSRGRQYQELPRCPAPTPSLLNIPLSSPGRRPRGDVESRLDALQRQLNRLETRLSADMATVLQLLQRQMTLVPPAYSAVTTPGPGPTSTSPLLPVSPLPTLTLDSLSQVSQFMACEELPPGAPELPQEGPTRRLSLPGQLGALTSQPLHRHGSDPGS

CCc1nn(C)c2nc(-c3ccc(C(=O)O)cc3)nc(NCc3ccc(F)cc3)c12
inhibition at 10 µM (PDE11A): > 50%
IC50 (Cytochrome P450 3A4): > 10 µM
inhibition [1]: 2%
inhibition [2]: 36%
inhibition [3]: 27%
inhibition (Homo sapiens [4]): 31%
solubility [5]: > 200 µM
IC50 (Cytochrome P450 2D6): > 10 µM
inhibition [6]: 55%
Activity (Cryptosporidium parvum): Active
inhibition [7]: 30%
inhibition [8]: 22%
inhibition at 10 µM (PDE6): > 50%
inhibition (Homo sapiens [9]): 79%
IC50 (Cytochrome P450 2C8): > 10 µM
inhibition [10]: 54%
CC50 at 48 h [11]: > 100 µM
IC50 (Cytochrome P450 2C19): > 10 µM
IC50 [12]: 8.2 µM
Activity (HCT-8): Non-toxic
IC50 (Cytochrome P450 2B6): > 10 µM
inhibition at 10 µM (PDE5): > 50%
IC50 [13]: > 10 µM
IC50 (Cytochrome P450 1A2): > 10 µM
inhibition at 10 µM (PDE4B1): > 50%
inhibition (Homo sapiens [14]): 18%
inhibition [15]: 42%
inhibition [16]: 93%
inhibition [17]: 37%
